Experimental data: patent US20250179439A1, “PRODUCTION METHOD FOR ORGANOID” (KEIO UNIVERSITY, priority 2022, published 2025)
Residues, ends and D or L forms follow the SMILES beside them. *: point of attachment. Cbz = O=C(OCc1ccccc1)*

Tested on: CRC organoids
Assay: Drug screening assay (HTS) of GFP-labelled organoids in suspension culture, 384-well
Format: cell-based, human
Excerpt: In the present study, a total of 23 organoid lineages were subjected to screening. Prior to screening, the organoids were labeled with a green fluorescent protein (GFP) using PB-CMV-MCS-EF1α-GFP-Puro PiggyBac (PB513B-1, available from System Biosciences, LLC.) and Super PiggyBac transposase (PB210-20, available from System Biosciences, LLC.) vectors.
The organoids were dissociated with TrypLE Express (available from Thermo Fisher Scientific, Inc.) and filtered using a cell strainer (pore size: 20 μm, available from Sysmex Corporation). Using a cell sorter (SH800, available from Sony Corporation), 800 to 1,500 cells were sorted into each well of a 384-well plate.
The organoids were treated with a test compound 24 hours or 96 hours after seeding. The organoids were grown for 6 to 8 days, and the colony area was measured based on the fluorescence of GFP using an IN Cell Analyzer 6000 confocal imaging system (available from GE Healthcare Life Sciences). In addition, bright field imaging and luminescence-based ATP measurement were carried out using Cell3iMager duos (available from SCREEN Holdings Co., Ltd.) and CellTiter-Glo cell viability assay (available from Promega Corporation).
The bright field image was analyzed using software integrated into the Cell3iMager. […]

| Compound | cell death (maximum concentration of 1 μM, all screening plates (normal colon and CRC organoids), used to estimate the background signal) [%] | growth of organoids, CRC versus normal colon organoids (MANOVA of HTS drug responses) (CRC organoids compared with normal colon organoids) |
| --- | --- | --- |
| CC(C)C[C@@H](C=O)NC(=O)[C@H](CC(C)C)NC(=O)[C@H](CC(C)C)NC(=O)OCc1ccccc1 [MG-132] (Cbz-Leu-Leu-Leu-aldehyde) | 100 | – |
| (+)-JQ1 | – | suppressed the growth of organoids in a cancer-specific manner |
